This experiment addresses ACSS2 (Homo sapiens, UniProt Q9NR19). The experiment in a line: biochemical.
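Further: Pyrophosphatase-coupled ACSS2 enzyme assay, 10 nM protein incubated 90 min at 37 °C with ATP, CoA and acetate, released phosphate read by Biomol Green absorbance at 620 nm.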

Sequence of ACSS2 (Q9NR19 whole entry): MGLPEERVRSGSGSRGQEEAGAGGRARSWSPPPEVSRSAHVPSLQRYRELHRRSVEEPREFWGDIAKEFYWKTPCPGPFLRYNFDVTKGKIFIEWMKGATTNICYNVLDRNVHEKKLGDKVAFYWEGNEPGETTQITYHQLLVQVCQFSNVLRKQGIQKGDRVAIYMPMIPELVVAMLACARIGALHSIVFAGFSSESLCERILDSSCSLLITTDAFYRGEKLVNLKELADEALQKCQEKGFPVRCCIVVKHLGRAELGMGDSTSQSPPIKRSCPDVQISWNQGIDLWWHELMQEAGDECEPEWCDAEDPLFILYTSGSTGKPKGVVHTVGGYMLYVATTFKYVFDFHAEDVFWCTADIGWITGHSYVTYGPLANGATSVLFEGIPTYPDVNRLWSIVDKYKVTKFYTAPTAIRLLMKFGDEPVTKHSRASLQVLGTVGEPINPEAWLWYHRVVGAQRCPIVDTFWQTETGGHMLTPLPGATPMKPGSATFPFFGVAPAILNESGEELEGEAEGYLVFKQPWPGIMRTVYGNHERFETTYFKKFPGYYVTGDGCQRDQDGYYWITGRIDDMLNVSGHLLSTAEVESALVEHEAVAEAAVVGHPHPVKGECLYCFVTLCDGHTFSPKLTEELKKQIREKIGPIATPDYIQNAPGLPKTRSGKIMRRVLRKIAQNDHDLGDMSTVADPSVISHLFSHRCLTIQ
Protocol: The assay is based on a coupling reaction with Pyrophosphatase: ACSS2 is converting ATP+CoA+Acetate=>AMP+pyrophosphate+Acetyl-CoA (Ac-CoA). Pyrophosphatase converts pyrophosphate, a product of the ACSS2 reaction, to phosphate which can be detected by measuring the absorbance at 620 nm after incubation with the Biomol green reagent (Enzo life Science, BML-AK111).
At the end of the reaction, Biomol Green was added for 30 minutes at RT and the activity was measured by reading the absorbance at 620 nm.

Compound `COc1ccccc1Cc1cc(-c2ccccc2)cc(N2N=C(C)C(C(=O)Nc3cccc(C(C)(F)F)c3)C2=O)c1` (stereo not drawn) [compound 467] returned an IC50 of 6 to 100 nM.

Turning to `CCC(F)(F)c1cccc(NC(=O)C2C(=O)N(c3ccc4ccn(C(=O)c5ccccc5C)c4c3)N=C2C)c1` (stereo not drawn) [compound 479], the IC50 lay in the range of 0.01 to 6 nM.

The compound `CON(C)C(=O)C(F)(F)c1cccc(NC(=O)C2C(=O)N(c3ccc(OC(F)F)c(-c4ccccn4)c3)N=C2C)c1` (stereo not drawn) [compound 471, N-(3-(1,1-difluoro-2-(methoxy(methyl)amino)-2-oxoethyl)phenyl)-1-(4-(difluoromethoxy)-3-(pyridin-2-yl)phenyl)-3-methyl-5-oxo-4,5-dihydro-1H-pyrazole-4-carboxamide] yielded an IC50 of 100 to 1000 nM.

For the compound `CCCC(=O)n1ccc2ccc(N3N=C(C)C(C(=O)Nc4cccc(C(F)(F)CC)c4)C3=O)cc21` (stereo not drawn) [compound 478, 1-(1-butanoylindol-6-yl)-N-[3-(1,1-difluoropropyl)phenyl]-3-methyl-5-oxo-4H-pyrazole-4-carboxamide], the half-maximal inhibitory concentration (IC50) lay within 0.01 to 6 nM.

Take `CCC(F)(F)c1cccc(NC(=O)C2C(=O)N(c3ccc4ccn(S(=O)(=O)c5ccccc5)c4c3)N=C2C)c1` (stereo not drawn) [compound 476, N-(3-(1,1-difluoropropyl)phenyl)-3-methyl-5-oxo-1-(1-(phenylsulfonyl)-1H-indol-6-yl)-4,5-dihydro-1H-pyrazole-4-carboxamide]: the 50% inhibitory concentration (IC50) is 0.01 to 6 nM.

The compound `CC1=NN(c2cc(Br)cc(I)c2)C(=O)C1C(=O)Nc1cccc(C(C)(F)F)c1` (stereo not drawn) [compound 468] registered an IC50 of 0.01 to 6 nM.

Regarding `CCC(F)(F)c1cccc(NC(=O)C2C(=O)N(c3ccc(OC)c(-c4cccc(C)n4)c3)N=C2C)c1` (stereo not drawn) [compound 536, N-(3-(1,1-difluoropropyl)phenyl)-1-(4-methoxy-3-(6-methylpyridin-2-yl)phenyl)-3-methyl-5-oxo-4,5-dihydro-1H-pyrazole-4-carboxamide], the IC50 fell in the range of 0.01 to 6 nM.

In the case of `C/C=C(\F)c1cccc(NC(=O)C2C(=O)N(c3ccc(OC(F)F)cc3)N=C2C)c1` (stereo not drawn) [compound 494, (Z)-1-(4-(difluoromethoxy)phenyl)-N-(3-(1-fluoroprop-1-en-1-yl)phenyl)-3-methyl-5-oxo-4,5-dihydro-1H-pyrazole-4-carboxamide], the half-maximal inhibitory concentration (IC50) was in the range of 0.01 to 6 nM.

For `CCC(F)(F)c1cccc(NC(=O)C2C(=O)N(c3ccc4cnn(S(=O)(=O)c5ccc(C)cc5)c4c3)N=C2C)c1` (stereo not drawn) [compound 487, N-[3-(1,1-difluoropropyl)phenyl]-3-methyl-5-oxo-1-[1-(p-tolylsulfonyl)indazol-6-yl]-4H-pyrazole-4-carboxamide], the IC50 is 6 to 100 nM.

`CCC(F)(F)c1cccc(NC(=O)C2C(=O)N(c3ccc4ccn(C(=O)c5cccc(O)c5)c4c3)N=C2C)c1` (stereo not drawn) [compound 493, N-(3-(1,1-difluoropropyl)phenyl)-1-(1-(3-hydroxybenzoyl)-1H-indol-6-yl)-3-methyl-5-oxo-4,5-dihydro-1H-pyrazole-4-carboxamide] returned an IC50 of 0.01 to 6 nM.

Regarding `CCC(F)(F)c1cccc(NC(=O)C2C(=O)N(c3ccc(OC)c(-c4ccncc4C)c3)N=C2C)c1` (stereo not drawn) [compound 532, N-(3-(1,1-difluoropropyl)phenyl)-1-(4-methoxy-3-(3-methylpyridin-4-yl)phenyl)-3-methyl-5-oxo-4,5-dihydro-1H-pyrazole-4-carboxamide], the IC50 lay within 0.01 to 6 nM.

Compound `CCC(F)(F)c1cc(NC(=O)C2C(=O)N(c3ccc(OC(F)F)cc3)N=C2C)ccn1` (stereo not drawn) [compound 506, 1-(4-(difluoromethoxy)phenyl)-N-(2-(1,1-difluoropropyl)pyridin-4-yl)-3-methyl-5-oxo-4,5-dihydro-1H-pyrazole-4-carboxamide] had an IC50 of 6 to 100 nM.

Regarding `CCC(F)(F)c1cccc(NC(=O)C2C(=O)N(c3ccc(Cl)nn3)N=C2C)c1` (stereo not drawn) [compound 490, 1-(6-chloropyridazin-3-yl)-N-(3-(1,1-difluoropropyl)phenyl)-3-methyl-5-oxo-4,5-dihydro-1H-pyrazole-4-carboxamide], the IC50 was 6 to 100 nM.

Turning to `CCC(F)(F)c1cccc(NC(=O)C2C(=O)N(c3ccc4ccn(Cc5ccccc5)c4c3)N=C2C)c1` (stereo not drawn) [compound 463, 1-(1-benzylindol-6-yl)-N-[3-(1,1-difluoropropyl)phenyl]-3-methyl-5-oxo-4H-pyrazole-4-carboxamide], the IC50 lay within 0.01 to 6 nM.

Regarding `CCC(F)(F)c1cccc(NC(=O)C2C(=O)N(c3ccc(OC)c(-c4ccccc4)n3)N=C2C)c1` (stereo not drawn) [compound 498, N-(3-(1,1-difluoropropyl)phenyl)-1-(5-methoxy-6-phenylpyridin-2-yl)-3-methyl-5-oxo-4,5-dihydro-1H-pyrazole-4-carboxamide], the IC50 lay in the range of 0.01 to 6 nM.

`CCC(F)(F)c1cccc(NC(=O)C2C(=O)N(c3ccc(OC)c(-c4cc(C)nc(C)c4)c3)N=C2C)c1` (stereo not drawn) [compound 531, N-(3-(1,1-difluoropropyl)phenyl)-1-(3-(2,6-dimethylpyridin-4-yl)-4-methoxyphenyl)-3-methyl-5-oxo-4,5-dihydro-1H-pyrazole-4-carboxamide] came in with an IC50 of 0.01 to 6 nM.

The compound `CCC(F)(F)c1cccc(NC(=O)C2C(=O)N(c3ccc(OC)nn3)N=C2C)c1` (stereo not drawn) [compound 510, N-(3-(1,1-difluoropropyl)phenyl)-1-(6-methoxypyridazin-3-yl)-3-methyl-5-oxo-4,5-dihydro-1H-pyrazole-4-carboxamide] showed an IC50 of 0.01 to 6 nM.

Regarding `CCC(F)(F)c1cccc(NC(=O)C2C(=O)N(c3ccc(OC)c(-c4ccnc(C)c4)c3)N=C2C)c1` (stereo not drawn) [compound 530, N-(3-(1,1-difluoropropyl)phenyl)-1-(4-methoxy-3-(2-methylpyridin-4-yl)phenyl)-3-methyl-5-oxo-4,5-dihydro-1H-pyrazole-4-carboxamide], the IC50 lay in the range of 0.01 to 6 nM.

With `CCc1cccc(NC(=O)C2C(=O)N(c3ccc([N+](=O)[O-])cc3)N=C2C)c1` (stereo not drawn) [compound 157], the IC50 was in the range of 1000 to 100000 nM.

`CCC(F)(F)c1cccc(NC(=O)C2C(=O)N(c3ccc4cn[nH]c4c3)N=C2C)c1` (stereo not drawn) [compound 499, N-[3-(1,1-difluoropropyl)phenyl]-1-(1H-indazol-6-yl)-3-methyl-5-oxo-4H-pyrazole-4-carboxamide] returned an IC50 of 0.01 to 6 nM.

In turn, `CCC(F)(F)c1cccc(NC(=O)C2C(=O)N(c3ccc4ccn(C(=O)c5cccc(C)c5)c4c3)N=C2C)c1` (stereo not drawn) [compound 483, N-[3-(1,1-difluoropropyl)phenyl]-3-methyl-1-[1-(3-methylbenzoyl)indol-6-yl]-5-oxo-4H-pyrazole-4-carboxamide] came in with an IC50 of 6 to 100 nM.

Compound `CC1=NN(c2ccc(OC(F)F)cc2)C(=O)C1C(=O)Nc1cccc(C(F)=C(C)C)c1` (stereo not drawn) [compound 496, 1-[4-(difluoromethoxy)phenyl]-N-[3-(1-fluoro-2-methyl-prop-1-enyl)phenyl]-3-methyl-5-oxo-4H-pyrazole-4-carboxamide] had an IC50 of 6 to 100 nM.

In turn, `CCC(F)(F)c1cccc(NC(=O)C2C(=O)N(c3cnc(OC)cn3)N=C2C)c1` (stereo not drawn) [compound 512, N-(3-(1,1-difluoropropyl)phenyl)-1-(5-methoxypyrazin-2-yl)-3-methyl-5-oxo-4,5-dihydro-1H-pyrazole-4-carboxamide] yielded an IC50 of 100 to 1000 nM.

As to `CC1=NN(c2ccc(OC(F)F)cc2)C(=O)C1C(=O)Nc1ccnc(C#N)c1` (stereo not drawn) [compound 504, N-(2-cyanopyridin-4-yl)-1-(4-(difluoromethoxy)phenyl)-3-methyl-5-oxo-4,5-dihydro-1H-pyrazole-4-carboxamide], the IC50 fell in the range of 100 to 1000 nM.

The values above are taken from patent US20250186433A1, “ACSS2 INHIBITORS AND METHODS OF USE THEREOF” (EpiVario, Inc., priority 2017, published 2025).
